# Laboratory results: article PMC11109052, “Metabolism characterization and toxicity of N-hydap, a marine candidate drug for lung cancer therapy by LC–MS method” (Natural Products and Bioprospecting, 2024)
# Key:
# RoRγ = tested on: RoRγ; set-up: method as in PMID 35259480; conditions: cited from earlier work
# CYP2C19 = assay: DME activity ex vivo in MLMs and MKMs: CYP2C19 (4-OH-MP from MP); set-up: species or system mice; key to CYP2C19 Enzymatic activity: ↑: up-regulation; ↓: down-regulation; –: no change
# Experimental: (§1) Mice were randomly divided into four groups, with eight animals in each group. The mice received oral pretreatment with N-hydap for 7 days at doses of 2, 5, and 10 mg/kg/day, which were considered as the low dose, medium dose, and high dose, respectively. Correspondingly, the control group received PBS. On the 8th day, the liver and kidneys were removed, and organs from eight mice per group were combined to prepare MLMs and MKMs using the detailed procedures above. Subsequently, we determined the activity of CYP and UGT enzymes by specific substrate metabolized with MLMs (0.5 mg/mL) and MKMs (0.2 mg/mL) in vitro. Specifically, the following selective substrates were used for the respective enzymes: PH (1 μM) for CYP1A2, DIC (1 μM) for CYP2C9, MP (90 μM) for CYP2C19, DM (1 μM) for CYP2D6, CZX (10 μM) for CYP2E1, Tes (1 μM) for CYP3A4, SN38 (1 μM) for UGT1A1, CACD (100 μM) for UGT1A3, Sero (20 μM) for UGT1A6, and Prop (1 μM) for UGT1A9. All substrates were dissolved in methanol or DMSO. The incubation procedure was carried out as mentioned above, and the reaction was terminated with VER (20 ng/mL) in ESI+ mode and CLP (200 ng/mL) in ESI− mode. In the ex vivo experiments, the activity of enzymes was measured by quantifying the production of various metabolites (nM/mg protein/min). The metabolites and their corresponding enzymes are as follows: APAP from PH, 4-OH-DIC from DIC, 4-OH-MP from MP, DXO from DM, 6-OH-CZX from CZX, 6-OH-Tes from Tes, SN38-G from SN38, CACD-G from CACD, Sero-G from Sero, Prop-G from Prop. The measurements were performed using multiple reaction monitoring (MRM) transitions, which are specific mass spectrometry transitions used for quantification. The optimized parameters for each metabolite, such as declustering potential and collision energy, were described in Supplementary Table 1. All experiments were conducted in triplicate, to ensure accuracy and reproducibility.
# UGT2B7 = biological target: T1, UGT2B7 (Homo sapiens, UniProt P16662); assay: Incubation with recombinant human UGT isoforms: UGT2B7; type: in vitro ADME; conditions: recombinant UGT 2 μg/mL
# T1 construct: purchased Cypex (Scotland, UK)
# Experimental: Incubation of N-hydap (2.5 μM) with eight recombinant human CYP enzymes (CYP1A2, CYP2B6, CYP2C9, CYP2C19, CYP2D6, CYP3A4, CYP4A11 and CYP4F2) at three enzyme concentrations (2, 4, and 20 μg/mL) was conducted following the same procedure as described above for microsomes. Subsequently, incubation with N-hydap (1, 2.5, and 6 μM) and twelve recombinant human UGT isoforms (UGT1A1, UGT1A3, UGT1A4, UGT1A6, UGT1A7, UGT1A8, UGT1A9, UGT1A10, UGT2B4, UGT2B7, UGT2B15 and UGT2B17) was performed, with the enzyme concentration used at 2 μg/mL. All reactions were carried out in triplicate.
# CYP3A4 = assay: DME activity ex vivo in MLMs and MKMs: CYP3A4 (6-OH-Tes from Tes); set-up: species or system mice; key to CYP3A4 Enzymatic activity: ↑: up-regulation; ↓: down-regulation; –: no change
# Experimental: as §1
# T1 sequence (P16662 24-529): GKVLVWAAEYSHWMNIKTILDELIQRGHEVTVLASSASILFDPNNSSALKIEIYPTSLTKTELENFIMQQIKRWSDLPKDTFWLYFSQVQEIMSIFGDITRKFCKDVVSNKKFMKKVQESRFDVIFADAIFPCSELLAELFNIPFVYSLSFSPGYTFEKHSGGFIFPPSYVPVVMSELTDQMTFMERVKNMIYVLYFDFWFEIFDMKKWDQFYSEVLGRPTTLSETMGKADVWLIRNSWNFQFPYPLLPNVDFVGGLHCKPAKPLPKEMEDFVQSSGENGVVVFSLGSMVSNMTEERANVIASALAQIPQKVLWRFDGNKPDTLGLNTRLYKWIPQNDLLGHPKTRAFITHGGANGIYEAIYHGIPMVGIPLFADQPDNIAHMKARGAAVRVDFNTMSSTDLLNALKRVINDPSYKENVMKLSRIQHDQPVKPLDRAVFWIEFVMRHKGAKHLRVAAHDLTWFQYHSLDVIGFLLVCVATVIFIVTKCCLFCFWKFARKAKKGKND
smiles,measurement,setting,value
"CC1CCC2C(C=CC(C)C2C(=O)c2c(O)c(C3(O)CCC(O)C4OC43)cn(O)c2=O)C1 (stereo not drawn) [N-hydap, N-Hydroxyapiosporamide]",action on RoRγ,RoRγ,RoRγ antagonist
same,CYP2C19 Enzymatic activity,CYP2C19; Kidney,–
same,CYP2C19 Enzymatic activity,CYP2C19; Liver,↓
same,reduction of formation rate of 4-OH-MP vs control,CYP2C19; liver microsomes of mice pretreated 7 days p.o.,33%
same,contribution of UGT2B7 to formation of N-hydap-G,UGT2B7,secondary contributors
same,CYP3A4 Enzymatic activity,CYP3A4; Kidney,↑
same,CYP3A4 Enzymatic activity,CYP3A4; Liver,↑
same,elevation of formation rate of 6-OH-Tes,"CYP3A4; MLMs and MKMs, range stated jointly for APAP, SN38-G, 6-OH-Tes and CDCA-G",12%-331%
same,"CYP3A4 inhibitor, experimental results",CYP3A4; Table 4 experimental column,No
